Test systems include SW-620 colon; EKVX NSCLC; KM12 colon; A549 NSCLC; HCC-2998 colon; HCT-116 colon; NCI/ADR-RES ovarian; COLO 205 colon; NCI-H226 lung; SNB-75 CNS.
Assay in all cases: NCI anticancer screen, dose series, 48 h

Structures are written as SMILES.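 The compound was tested at five concentrations on cells cultured in 96-well plates, with a 48-hour exposure period. At the TGI there is no net growth.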

Turning to `CC(=O)NNc1nc(C)c(C(/C=C/c2ccc3c(c2)OCO3)=N/Nc2ccccc2)s1`, the TGI in the test with SW-620 colon, in the test on EKVX NSCLC, in the test on KM12 colon, in the test on A549 NSCLC, in the test with HCC-2998 colon and with HCT-116 colon was over 100 µM in each case. The TGI in the test with NCI/ADR-RES ovarian, in the test on COLO 205 colon, in the test on NCI-H226 lung and with SNB-75 CNS was over 100 µM throughout.
In the case of `COC(=O)Cc1ccc2c(c1)Sc1ccc(CC(=O)OC)cc1N2C`, the TGI was over 100 µM with SW-620 colon; over 100 µM in the test on EKVX NSCLC; over 100 µM with KM12 colon; over 90.3 µM with A549 NSCLC; over 100 µM in the test with HCC-2998 colon; over 100 µM in the test with HCT-116 colon. Further, the TGI in the test on NCI/ADR-RES ovarian is over 68.3 µM; in the test with COLO 205 colon, 53.8 µM; in the test on NCI-H226 lung it was over 93.5 µM; in the test with SNB-75 CNS, over 93.4 µM.
On to `CC(=O)OC(Cc1cc(C=C(C(F)(F)F)C(F)(F)F)cc(C)n1)(C(F)(F)F)C(F)(F)F`, for which the TGI in the test with SW-620 colon stood at 5.67 µM; with EKVX NSCLC, 5.87 µM; in the test on KM12 colon, 2.98 µM; in the test on A549 NSCLC, 12.4 µM; in the test with HCC-2998 colon, 13.3 µM; in the test with HCT-116 colon it was 2.91 µM. Further, the TGI with NCI/ADR-RES ovarian is over 100 µM; with COLO 205 colon, 2.99 µM; with NCI-H226 lung it was 3.49 µM; in the test on SNB-75 CNS it was 7.02 µM.
Turning to `Oc1ccc(/C=C\c2nnc(/C=C\c3ccc(O)c(O)c3)s2)cc1O`, the TGI is 13.3 µM in the test on SW-620 colon; over 54.6 µM with EKVX NSCLC; 18.9 µM with KM12 colon; over 52.8 µM in the test with A549 NSCLC; 23.9 µM with HCC-2998 colon; 13 µM with HCT-116 colon. The TGI in the test with NCI/ADR-RES ovarian was over 59.2 µM; in the test on COLO 205 colon it was 22.5 µM; in the test on NCI-H226 lung it was 20 µM; in the test with SNB-75 CNS it was 15.3 µM.
For the molecule `O=[N+]([O-])c1cccc(-c2csc(N=Nc3c(O)[nH]c4ccccc34)n2)c1`, the TGI was over 100 µM in the test with SW-620 colon; 61.8 µM in the test on EKVX NSCLC; over 100 µM with KM12 colon; 44 µM with A549 NSCLC; 32 µM in the test with HCC-2998 colon; 33.2 µM in the test on HCT-116 colon. The TGI with NCI/ADR-RES ovarian was 29.6 µM; in the test on COLO 205 colon, over 100 µM; in the test on NCI-H226 lung, 47.6 µM; with SNB-75 CNS it was 56.1 µM.
`O=C(Nc1sccc1S(=O)(=O)c1ccccc1)c1cccnc1`: the TGI in the test with SW-620 colon, with EKVX NSCLC, in the test on KM12 colon, with A549 NSCLC, in the test on HCC-2998 colon and in the test with HCT-116 colon was over 100 µM each time. Also, the TGI with NCI/ADR-RES ovarian is over 52.7 µM; in the test on COLO 205 colon, 18 µM; with NCI-H226 lung, over 59.3 µM; with SNB-75 CNS, over 91 µM.
In the case of `CC(=O)C(C(C)=O)=C1CCCC(O)O1` (stereo not given), the TGI in the test on SW-620 colon, with EKVX NSCLC, in the test on KM12 colon, with A549 NSCLC, in the test on HCC-2998 colon and in the test on HCT-116 colon was over 100 µM throughout. In addition, the TGI in the test with NCI/ADR-RES ovarian, in the test with COLO 205 colon, in the test with NCI-H226 lung and in the test with SNB-75 CNS was over 100 µM in each case.
On to `Cn1c(=O)c2c(nc(NCCCCl)n2CC(=O)O)n(C)c1=O`, for which the TGI with SW-620 colon, in the test with EKVX NSCLC, in the test with KM12 colon, with A549 NSCLC, in the test on HCC-2998 colon and with HCT-116 colon was over 100 µM each time. For the same molecule, the TGI in the test on NCI/ADR-RES ovarian, in the test on COLO 205 colon, in the test with NCI-H226 lung and in the test on SNB-75 CNS was over 100 µM in each case.
On to `CC(C)(CN)CN`, for which the TGI with SW-620 colon, in the test on EKVX NSCLC, in the test with KM12 colon, in the test on A549 NSCLC, in the test on HCC-2998 colon and in the test with HCT-116 colon was over 100 µM each time. Besides, the TGI in the test with NCI/ADR-RES ovarian, with COLO 205 colon, in the test with NCI-H226 lung and in the test on SNB-75 CNS was over 100 µM in each case.
As for `COc1ccc(N2C=Nn3c(nc4sc(C)c(C)c4c3=O)C2)cc1`, the TGI in the test on SW-620 colon, with EKVX NSCLC, in the test on KM12 colon, in the test on A549 NSCLC, with HCC-2998 colon and in the test with HCT-116 colon was over 100 µM each time. Further, the TGI in the test on NCI/ADR-RES ovarian, in the test with COLO 205 colon, in the test on NCI-H226 lung and in the test on SNB-75 CNS was over 100 µM each time.
Consider `CCCC/C=C1\CCC(CN2CCCCC2)C1=O` (stereo not given), for which the TGI was 14.4 µM with SW-620 colon; 31.9 µM with EKVX NSCLC; over 33.8 µM in the test on KM12 colon; 52.9 µM in the test with A549 NSCLC; 22.6 µM in the test on HCC-2998 colon; 36.7 µM in the test on HCT-116 colon. Also, the TGI with NCI/ADR-RES ovarian is over 100 µM; with COLO 205 colon it was 29 µM; in the test on NCI-H226 lung, 63.1 µM; with SNB-75 CNS, over 100 µM.
Consider `COC(=O)/C=C/c1ccccc1N=[S@](C)(=O)c1ccc(C)cc1`, for which the TGI in the test with SW-620 colon was over 100 µM; with EKVX NSCLC, over 100 µM; in the test on KM12 colon, over 100 µM; with A549 NSCLC, over 100 µM; in the test with HCC-2998 colon, 50.1 µM; in the test on HCT-116 colon it was 71.8 µM. The TGI in the test on NCI/ADR-RES ovarian is 72.5 µM; in the test with COLO 205 colon, 26.7 µM; in the test with NCI-H226 lung, over 100 µM; with SNB-75 CNS it was 36.1 µM.
Consider `c1ccc(CNc2c3c(nc4ccccc24)CCC3)cc1`, for which the TGI in the test on SW-620 colon turned out to be 28.2 µM; in the test on EKVX NSCLC, 42.9 µM; in the test with KM12 colon, 40.3 µM; in the test on A549 NSCLC, 38.9 µM; in the test with HCC-2998 colon it was 26.5 µM; in the test on HCT-116 colon, 24.9 µM. For the same molecule, the TGI in the test with NCI/ADR-RES ovarian amounted to 44.2 µM; with COLO 205 colon it was 25 µM; in the test with NCI-H226 lung it was 35.9 µM; with SNB-75 CNS, 43.5 µM.

(Values after PubChem BioAssay (NCI).)
